Measured values as given in patent US20120309699A1, “COMPOUNDS HAVING ANTI-INFLAMMATORY ACTIVITY” (Consejo Superior de Investigaciones Cientificas (CSIC), priority 2009, published 2012).

Assays:
[1] = system: TNFR1 (Tumor necrosis factor receptor, CD120a); assay: Antibody array in colonic mucosa: TNFR1 (DSS model); format: in vivo, mice; settings: after 8 days DSS, without recovery period; HED 10 mg
Description: (§1) A model for intestinal inflammation based on the administration of DSS (sodium dextran sulfate) to C57BL/6 mice was used. At the present time there is no consensus about which overall is the best model for experimental colitis. The DSS model has been widely used because it has clinical, morphological and analytical characteristics which up to a point are similar to those specific to patients with ulcerative colitis or Crohn's disease.
(§2) The in vivo inflammation test was carried out using duplicates separated by a number of months. In each test each group of animals (n=8) was fed a standard diet supplemented with 2.3 mg/day/kg (animal weight) of each of the compounds, depending upon the group. […]
(§3) • Monitoring of weight, food and drink ingestion. The mice in all groups were individually monitored, with weight, quantity of food ingested and water drunk each day being monitored throughout the experimental test. • Blood and water in feces. The water content of feces, as an indication of diarrhea, was evaluated using the difference in weight following evaporation in a stove. Blood was measured using reactive strips based on the guaiacol-peroxidase reaction (HealthCare Diagnosis Inc.). […] The reaction was measured using a scale from 0 (negative result) to 4 (most intense color change). • Length of colon. After sacrifice the colon was obtained from each mouse, extended and measured. […]

bifidobacteria = assay: Microbiota counts in feces: bifidobacteria; format: in vivo, mice; settings: after administration of DSS; HED 10 mg
Description: as §1
The in vivo inflammation test was carried out using duplicates separated by a number of months. In each test each group of animals (n=8) was fed a standard diet supplemented with 2.3 mg/day/kg (animal weight) of each of the compounds, depending upon the group. This dose assumes the ingestion of 0.05 mg/day (50 μg/day) per mouse (having a mean weight of 22 grams). This dose extrapolated to a human being is equivalent to 10 mg in an adult weighing 70 kg; using the formula HED (human equivalent dose)=animal dose in mg/kg×(animal weight kg/human weight in kg)^0.33.
In each test the mice were fed for 3 weeks during which 1% DSS was included in their drink. The DSS was maintained for 8 days (and the same food as from the start). Then the DSS was withdrawn and the animals were allowed to recover for another 6 days (again with the same food).
• Monitoring of weight, food and drink ingestion. The mice in all groups were individually monitored, with weight, quantity of food ingested and water drunk each day being monitored throughout the experimental test. • Blood and water in feces. The water content of feces, as an indication of diarrhea, was evaluated using the difference in weight following evaporation in a stove. Blood was measured using reactive strips based on the guaiacol-peroxidase reaction (HealthCare Diagnosis Inc.). […] The reaction was measured using a scale from 0 (negative result) to 4 (most intense color change). • Length of colon. After sacrifice the colon was obtained from each mouse, extended and measured. […] This was evaluated by spectrophotometry at 460 nm using O-dianisidine reagent and hydrogen peroxide. The change in absorbance at 460 nm was monitored over 10 minutes in a V-630 spectrophotometer (Jasco, Tokyo, Japan). MPO activity was expressed as mU of activity/mg of fresh tissue, comparing the increase in absorbance with a standard straight line obtained using leukocyte myeloperoxidase (Sigma). • Prostaglandins in colonic mucosa. Levels of PGE2 were measured in colonic mucosa homogenates using an immunoenzyme method using a Cayman Chem. kit (USA). • “Antibody array”. […] The signal was detected by chemoluminescence. […] Signal intensities (densitometry) were analyzed using ScanAlyze software. […] The changes in cytokine levels were expressed as mean±SD in arbitrary density units. […]

lactobacilli = assay: Microbiota counts in feces: lactobacilli; format: in vivo, mice; settings: pre-treatment, maintained after DSS; HED 10 mg
Description: as §1, §2, §3

clostridia = assay: Microbiota counts in feces: clostridia; format: in vivo, mice; settings: pre-treatment, maintained after DSS; HED 10 mg
Description: as §1, §2, §3

enterobacteria = assay: Microbiota counts in feces: enterobacteria; format: in vivo, mice; settings: after administration of DSS; HED 10 mg
Description: as §1
(§4) The in vivo inflammation test was carried out using duplicates separated by a number of months. In each test each group of animals (n=8) was fed a standard diet supplemented with 2.3 mg/day/kg (animal weight) of each of the compounds, depending upon the group. This dose assumes the ingestion of 0.05 mg/day (50 μg/day) per mouse (having a mean weight of 22 grams). This dose extrapolated to a human being is equivalent to 10 mg in an adult weighing 70 kg; using the formula HED (human equivalent dose)=animal dose in mg/kg×(animal weight kg/human weight in kg)^0.33. […]
(§5) • Monitoring of weight, food and drink ingestion. The mice in all groups were individually monitored, with weight, quantity of food ingested and water drunk each day being monitored throughout the experimental test. • Blood and water in feces. The water content of feces, as an indication of diarrhea, was evaluated using the difference in weight following evaporation in a stove. Blood was measured using reactive strips based on the guaiacol-peroxidase reaction (HealthCare Diagnosis Inc.). […] The reaction was measured using a scale from 0 (negative result) to 4 (most intense color change). • Length of colon. After sacrifice the colon was obtained from each mouse, extended and measured. […] This was evaluated by spectrophotometry at 460 nm using O-dianisidine reagent and hydrogen peroxide. The change in absorbance at 460 nm was monitored over 10 minutes in a V-630 spectrophotometer (Jasco, Tokyo, Japan). […] Levels of PGE2 were measured in colonic mucosa homogenates using an immunoenzyme method using a Cayman Chem. kit (USA). • “Antibody array”. […] The signal was detected by chemoluminescence. […]

E. coli = assay: Microbiota counts in feces: E. coli; format: in vivo, mice; settings: after administration of DSS; HED 10 mg
Description: as §1, §4, §5

[2] = system: Listeria monocytogenes Scott A; assay: Adhesion of L. monocytogenes to Caco-2 cells; format: cell-based, human; settings: Caco-2, 25 μM/well; in comparison with resveratrol and the other derivatives
Description: We used two cell models for colon cancer to evaluate the anti-adhesion capacity of compounds derived from resveratrol against pathogenic bacteria in food: Caco-2 (a model frequently used to measure the adhesion of microorganisms) and HT-29 (a model frequently used to measure immune response to infections by enteropathogens). Caco-2 and HT-29 cells were grown in EMEM and DMEM respectively, for which 24 well plates were used at 37° C., 5% CO2, 95% air until a single layer of confluent epithelium formed (cell concentration per well 2×10^5 and 6×10^5 respectively). Pathogenic bacteria (E. coli O157, Salmonella and Listeria monocytogenes Scott A) were placed in contact with the various compounds derived from resveratrol for 1 hour and subsequently the bacteria together with the different compounds in a concentration of 25 μM/well were inoculated on the cell cultures, incubating the plates for 2 hours at 37° C., 5% CO2, 95% air. The plates were then washed 3 times with 1 ml of sterile PBS and 1 ml of distilled water with 20% of glycerol was added, and they were frozen at −70° C. to lyse the epithelial cells. […] Concentrations of the various derivatives tested were detected in the digestive tracts of experimental animals and therefore the test lay within the range of physiologically achievable concentrations.

SMILES	Level of TNFR1 in colonic mucosa [1]	Bifidobacteria count in feces (bifidobacteria)	Population of lactobacilli in feces (lactobacilli)	Population of clostridia in feces (clostridia)	Enterobacteria count in feces (enterobacteria)	E. coli count in feces (E. coli)	Anti-adhesion efficacy in respect of L. monocytogenes [2]
CCCC(=O)OCC1OC(Oc2cc(O)cc(/C=C/c3ccc(O)cc3)c2)C(O)C(O)C1O [BUT, trans-resveratrol-3-O-(6′-O-butanoyl)-β-D-glucopyranoside]	values are similar to those for the control mice	continued the upward trend	increases the population	increases the population	clear reduction	clear reduction	greater anti-adhesion efficacy
CCCCCCCC(=O)OCC1OC(Oc2cc(O)cc(/C=C/c3ccc(O)cc3)c2)C(O)C(O)C1O [OCT, trans-resveratrol-3-O-(6′-O-octanoyl)-β-D-glucopyranoside]	values are similar to those for the control mice	continued the upward trend	increases the population	increases the population	clear reduction	clear reduction	greater anti-adhesion efficacy
